Measurements published in patent US20240246932A1 (Merck Sharp & Dohme LLC, priority 2021, published 2024).

These compounds were tested against human NaV 1.8 channels stably expressed in HEK 293 cells (Homo sapiens (Human), UniProt Q9Y5Y9) (assay: Nav1.8 Qube automated patch-clamp assay). Conditions: human NaV1.8 in HEK 293 cells, whole-cell voltage clamp, room temperature; read-out: IC50 values (nM) for Examples in the Nav1.8 Qube Assay.
Assay type: cell-based
Method: Compounds were tested on human NaV 1.8 and NaV1.5 channels stably expressed in human embryo kidney (HEK) 293 cells. Sodium current measurements on Qube® were conducted as follows: automated 384-well patch-clamp assays on the Qube® platform (Sophion Biosciences) were used to measure the inhibition of sodium flow through human NaV1.8 and NaV1.5 channels. Whole-cell voltage-clamp recordings were performed in QChips® (Sophion Biosciences) at room temperature. NaV1.8 current measurements on Qube® were obtained as follows: NaV1.8 currents were elicited with a 10 second 1 Hertz (Hz) pulse train from a holding potential of −90 millivolts (mV), delivered to the cells once per minute in the control condition (DMSO only) and after compound addition. The 1 hertz pulse train stimulation consisted of ten test pulses to 10 millivolt (mV) for 20 milliseconds (ms), each of which was followed by a 980 millisecond repolarization to −67 millivolts. At the end of the 10 second pulse train stimulation, a 5 second hyperpolarization step to −100 millivolt (mV) was used to recover NaV1.8 from fast inactivation. The peak currents elicited by the 1st and 10th test pulses were used to determine IC50 values for resting inhibition and inactivated state inhibition. NaV1.5 current measurements on Qube® were obtained as follows: NaV1.5 currents were elicited with a 20 second 3 Hertz pulse train in the control condition (DMSO only) and after compound addition. The pulse train consisted of sixty 20 millisecond test pulses to 0 millivolt from a holding potential of −80 millivolt (mV). The average peak currents elicited by the last 3 test pulses were used to determine IC50 values for NaV1.5 inhibition.
The following buffers were used for the Qube® recordings: External buffer for NaV1.8 Qube® recording: 150 NaCl, 2 CaCl2, 5 KCl, 1 MgCl2, 10 HEPES, 12 Dextrose; External buffer for Qube® NaV1.5 recording: 120 N-Methyl-D-Glucamine, 40 NaCl, 1 KCl, 2.7 CaCl2), 5 HEPES, 0.5 MgCl2; and Internal buffer for Qube® recording: 120 CsF, 30 CsCl, 10 EGTA, 5 HEPES, 5 NaF, 2 MgCl2.
For all Qube® experiments offline analysis was used to determine percent inhibition as a function of drug concentration. IC50 values were determined by fitting to the Hill equation.

Sequence of human NaV 1.8 channels stably expressed in HEK 293 cells (Q9Y5Y9 whole entry): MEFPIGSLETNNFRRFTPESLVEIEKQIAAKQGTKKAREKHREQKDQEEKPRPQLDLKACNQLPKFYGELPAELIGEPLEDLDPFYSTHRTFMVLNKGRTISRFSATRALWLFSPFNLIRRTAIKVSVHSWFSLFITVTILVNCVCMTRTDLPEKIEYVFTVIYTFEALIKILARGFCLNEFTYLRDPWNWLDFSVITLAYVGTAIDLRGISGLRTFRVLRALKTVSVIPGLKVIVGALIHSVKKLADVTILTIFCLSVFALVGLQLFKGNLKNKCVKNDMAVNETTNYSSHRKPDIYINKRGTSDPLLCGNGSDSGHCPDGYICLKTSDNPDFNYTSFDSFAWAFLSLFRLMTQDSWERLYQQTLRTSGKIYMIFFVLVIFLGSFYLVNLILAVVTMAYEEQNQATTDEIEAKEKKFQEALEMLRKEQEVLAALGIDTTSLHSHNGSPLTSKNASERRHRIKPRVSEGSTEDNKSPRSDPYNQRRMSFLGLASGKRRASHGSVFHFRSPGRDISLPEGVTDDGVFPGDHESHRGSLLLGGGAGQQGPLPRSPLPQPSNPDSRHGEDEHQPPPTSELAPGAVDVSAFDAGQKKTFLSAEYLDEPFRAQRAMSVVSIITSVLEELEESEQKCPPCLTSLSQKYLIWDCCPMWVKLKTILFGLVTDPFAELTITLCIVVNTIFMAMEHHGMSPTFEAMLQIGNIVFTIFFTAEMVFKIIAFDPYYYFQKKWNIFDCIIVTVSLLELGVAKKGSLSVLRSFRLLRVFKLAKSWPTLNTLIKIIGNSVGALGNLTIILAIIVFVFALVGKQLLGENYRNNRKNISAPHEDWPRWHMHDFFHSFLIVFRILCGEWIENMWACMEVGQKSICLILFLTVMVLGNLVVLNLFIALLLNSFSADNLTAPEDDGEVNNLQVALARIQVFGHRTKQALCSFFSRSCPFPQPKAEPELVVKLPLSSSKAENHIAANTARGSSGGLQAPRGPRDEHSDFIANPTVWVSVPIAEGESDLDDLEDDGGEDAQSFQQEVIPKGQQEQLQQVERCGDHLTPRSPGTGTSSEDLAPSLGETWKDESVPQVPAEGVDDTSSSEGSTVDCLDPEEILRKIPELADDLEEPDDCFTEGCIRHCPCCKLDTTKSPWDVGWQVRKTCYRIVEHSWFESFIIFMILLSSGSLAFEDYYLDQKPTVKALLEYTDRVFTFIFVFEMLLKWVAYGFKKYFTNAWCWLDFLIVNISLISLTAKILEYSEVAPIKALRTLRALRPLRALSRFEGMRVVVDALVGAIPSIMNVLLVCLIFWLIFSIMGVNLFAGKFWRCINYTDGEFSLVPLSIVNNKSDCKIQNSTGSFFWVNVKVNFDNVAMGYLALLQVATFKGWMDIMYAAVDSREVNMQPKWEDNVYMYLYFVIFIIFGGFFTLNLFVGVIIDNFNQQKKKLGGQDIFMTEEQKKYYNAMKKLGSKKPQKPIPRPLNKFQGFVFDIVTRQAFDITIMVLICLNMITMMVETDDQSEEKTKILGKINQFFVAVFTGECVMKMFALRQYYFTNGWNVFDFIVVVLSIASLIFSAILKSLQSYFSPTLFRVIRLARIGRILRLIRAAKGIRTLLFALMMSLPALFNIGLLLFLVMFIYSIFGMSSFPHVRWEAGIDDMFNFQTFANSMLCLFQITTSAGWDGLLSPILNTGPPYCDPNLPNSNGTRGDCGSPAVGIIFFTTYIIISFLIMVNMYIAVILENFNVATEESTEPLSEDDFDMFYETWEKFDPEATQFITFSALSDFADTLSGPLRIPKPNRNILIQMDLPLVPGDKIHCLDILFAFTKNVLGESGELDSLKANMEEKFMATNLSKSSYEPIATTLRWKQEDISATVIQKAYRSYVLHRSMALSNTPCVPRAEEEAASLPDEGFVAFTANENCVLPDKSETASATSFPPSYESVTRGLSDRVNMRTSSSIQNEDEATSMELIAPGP

IC50	SMILES
3.51 nM	C[C@@H]1C(=O)NCCN1C(=O)NC(c1ccc(OC2CC2)c(F)c1)c1cnc(C(F)(F)F)c(Cl)c1 (single isomer, unassigned) [Example 25A, (2R)-N-((R or S)-(5-chloro-6-(trifluoro-methyl)pyridin-3-yl)(4-cyclopropoxy-3-fluorophenyl)methyl)-2-methyl-3-oxopiperazine-1-carboxamide]
15.8 nM	C[C@@H]1C(=O)NCCN1C(=O)NC(c1ccc(OC2CC2)c(F)c1)c1cnc(C(F)(F)F)c(Cl)c1 (single isomer, unassigned) [Example 25B, (2R)-N-((S or R)-(5-chloro-6-(trifluoro-methyl)pyridin-3-yl)(4-cyclopropoxy-3-fluorophenyl)methyl)-2-methyl-3-oxopiperazine-1-carboxamide]
1.89 nM	C[C@@H]1C(=O)NCCN1C(=O)NC(c1ccc(F)c(Cl)c1)c1cnc(C(F)(F)F)c(Cl)c1 (single isomer, unassigned) [Example 26A, (2R)-N-((R or S)-(3-chloro-4-fluoro-phenyl)(5-chloro-6-(trifluoromethyl)pyridin-3-yl)methyl)-2-methyl-3-oxopiperazine-1-carboxamide]
3.81 nM	C[C@@H]1C(=O)NCCN1C(=O)NC(c1ccc(F)c(Cl)c1)c1cnc(C(F)(F)F)c(Cl)c1 (single isomer, unassigned) [Example 26B, (2R)-N-((S or R)-(3-chloro-4-fluoro-phenyl)(5-chloro-6-(trifluoromethyl)pyridin-3-yl)methyl)-2-methyl-3-oxopiperazine-1-carboxamide]
52.6 nM	C[C@@H]1C(=O)NCCN1C(=O)NC(c1cnc(C2CC2)c(Cl)c1)c1ccc(F)c(Cl)c1F (single isomer, unassigned) [Example 27A, (2R)-N-((R or S)-(3-chloro-2,4-difluoro-phenyl)(5-chloro-6-cyclopropylpyridin-3-yl)methyl)-2-methyl-3-oxopiperazine-1-carboxamide]
2.88 nM	C[C@@H]1C(=O)NCCN1C(=O)NC(c1cnc(C2CC2)c(Cl)c1)c1ccc(F)c(Cl)c1F (single isomer, unassigned) [Example 27B, (2R)-N-((S or R)-(3-chloro-2,4-difluorophenyl)(5-chloro-6-cyclopropylpyridin-3-yl)methyl)-2-methyl-3-oxopiperazine-1-carboxamide]
10.8 nM	C[C@@H]1C(=O)NCCN1C(=O)NC(c1cnc(C(F)(F)F)nc1)c1ccc(Cl)c(Cl)c1 (single isomer, unassigned) [Example 28A, (2R)—N—((R or S)-(3,4-dichlorophenyl)(2-(trifluoromethyl)pyrimidin-5-yl)methyl)-2-methyl-3-oxopiperazine-1-carboxamide]
43.7 nM	C[C@@H]1C(=O)NCCN1C(=O)NC(c1cnc(C(F)(F)F)nc1)c1ccc(Cl)c(Cl)c1 (single isomer, unassigned) [Example 28B, (2R)-N-((S or R)-(3,4-dichlorophenyl)(2-(trifluoromethyl)pyrimidin-5-yl)methyl)-2-methyl-3-oxopiperazine-1-carboxamide]
21.4 nM	C[C@@H]1C(=O)NCCN1C(=O)NC(c1ccc(C(F)(F)F)nc1)c1ccc(Cl)c(Cl)c1F (single isomer, unassigned) [Example 29A, (2R)-N-((R or S)-(3,4-dichloro-2-fluoro-phenyl)(6-(trifluoro-methyl)pyridin-3-yl)methyl)-2-methyl-3-oxopiperazine-1-carboxamide]
3.42 nM	C[C@@H]1C(=O)NCCN1C(=O)NC(c1ccc(C(F)(F)F)nc1)c1ccc(Cl)c(Cl)c1F (single isomer, unassigned) [Example 29B]
506 nM	C[C@@H]1C(=O)NCCN1C(=O)NC(c1cnc(C(F)(F)F)nc1)c1ccc(F)c(Cl)c1F (single isomer, unassigned) [Example 30A, (2R)-N-((R or S)-(3-chloro-2,4-difluoro-phenyl)(2-(trifluoro-methyl)pyrimidin-5-yl)methyl)-2-methyl-3-oxopiperazine-1-carboxamide]
9.18 nM	C[C@@H]1C(=O)NCCN1C(=O)NC(c1cnc(C(F)(F)F)nc1)c1ccc(F)c(Cl)c1F (single isomer, unassigned) [Example 30B, (2R)-N-((S or R)-(3-chloro-2,4-difluoro-phenyl)(2-(trifluoro-methyl)pyrimidin-5-yl)methyl)-2-methyl-3-oxopiperazine-1-carboxamide]
3.47 nM	C[C@@H]1C(=O)NCCN1C(=O)NC(c1ccc(OC(F)F)nc1)c1ccc(F)c(Cl)c1F (single isomer, unassigned) [Example 31A, (2R)-N-((R or S)-(3-chloro-2,4-difluoro-phenyl)(6-(difluoro-methoxy)pyridin-3-yl)methyl)-2-methyl-3-oxopiperazine-1-carboxamide]
16.1 nM	C[C@@H]1C(=O)NCCN1C(=O)NC(c1ccc(OC(F)F)nc1)c1ccc(F)c(Cl)c1F (single isomer, unassigned) [Example 31B, (2R)-N-((S or R)-(3-chloro-2,4-difluoro-phenyl)(6-(difluoro-methoxy)pyridin-3-yl)methyl)-2-methyl-3-oxopiperazine-1-carboxamide]
96.8 nM	C[C@@H]1C(=O)NCCN1C(=O)NC(c1ccc(C(F)F)nc1)c1ccc(F)c(Cl)c1F (single isomer, unassigned) [Example 32A, (2R)-N-((R or S)-(3-chloro-2,4-difluoro-phenyl)(6-(difluoro-methyl)pyridin-3-yl)methyl)-2-methyl-3-oxopiperazine-1-carboxamide]
13 nM	C[C@@H]1C(=O)NCCN1C(=O)NC(c1ccc(C(F)F)nc1)c1ccc(F)c(Cl)c1F (single isomer, unassigned) [Example 32B, (2R)-N-((s or R)-(3-chloro-2,4-difluoro-phenyl)(6-(difluoro-methyl)pyridin-3-yl)methyl)-2-methyl-3-oxopiperazine-1-carboxamide]
14.4 nM	C[C@@H]1C(=O)NCCN1C(=O)NC(c1ccc(C2CC2)nc1)c1ccc(F)c(Cl)c1F (single isomer, unassigned) [Example 33A, (2R)-N-((R or S)-(3-chloro-2,4-difluoro-phenyl)(6-cyclo-propylpyridin-3-yl)methyl)-2-methyl-3-oxopiperazine-1-carboxamide]
514 nM	C[C@@H]1C(=O)NCCN1C(=O)NC(c1ccc(C2CC2)nc1)c1ccc(F)c(Cl)c1F (single isomer, unassigned) [Example 33B, (2R)-N-((S or R)-(3-chloro-2,4-difluoro-phenyl)(6-cyclo-propylpyridin-3-yl)methyl)-2-methyl-3-oxopiperazine-1-carboxamide]
2.12 nM	C[C@@H]1C(=O)NCCN1C(=O)NC(c1cnc(C(F)(F)F)c(F)c1)c1ccc(F)c(Cl)c1F (single isomer, unassigned) [Example 34, (2R)—N—((R or S)-(3-chloro-2,4-difluorophenyl)(5-fluoro-6-(trifluoromethyl)pyridin-3-yl)methyl)-2-methyl-3-oxopiperazine-1-carboxamide]
1.13 nM	C[C@@H]1C(=O)NCCN1C(=O)NC(c1cnc(C(F)(F)F)c(Cl)c1)c1ccc(F)c(Cl)c1F (single isomer, unassigned) [Example 35, (2R)-N-((R or S)-(3-chloro-2,4-difluorophenyl)(5-chloro-6-(trifluoromethyl)pyridin-3-yl)methyl)-2-methyl-3-oxopiperazine-1-carboxamide]
